Results from PubChem BioAssay AID1671426.

Biological target: Proto-oncogene tyrosine-protein kinase Src (Homo sapiens) (UniProt P12931)
Experiment: PubChem AID 1671426
Settings: Z'-LYTE FRET kinase activity, recombinant SRC N1

Proto-oncogene tyrosine-protein kinase Src (Homo sapiens), sequence (P12931 whole entry, looked up): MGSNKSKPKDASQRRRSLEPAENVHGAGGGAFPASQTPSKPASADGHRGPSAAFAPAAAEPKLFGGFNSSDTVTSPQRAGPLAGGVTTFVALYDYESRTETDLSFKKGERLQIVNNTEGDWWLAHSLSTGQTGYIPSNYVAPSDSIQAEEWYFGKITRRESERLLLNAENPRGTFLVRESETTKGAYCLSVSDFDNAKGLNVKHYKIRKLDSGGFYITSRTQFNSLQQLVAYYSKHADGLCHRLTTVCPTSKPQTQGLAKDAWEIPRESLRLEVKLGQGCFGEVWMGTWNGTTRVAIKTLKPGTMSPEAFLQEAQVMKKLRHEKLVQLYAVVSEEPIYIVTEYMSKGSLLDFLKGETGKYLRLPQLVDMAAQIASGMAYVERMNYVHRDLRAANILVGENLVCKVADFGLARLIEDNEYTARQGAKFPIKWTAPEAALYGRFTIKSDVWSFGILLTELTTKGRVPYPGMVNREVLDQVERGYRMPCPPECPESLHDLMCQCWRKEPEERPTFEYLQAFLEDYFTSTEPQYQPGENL

- IC50: 1.98 µM
SMILES: COc1cc2ncnc(Nc3cccc(Cl)c3)c2cc1OC
